# Measurements published in US8716355B2, “Hydroxylated tolans and related compounds in the treatment of a cancer” (Kent State University, priority 2007, dated 2014).
# Key:
# [1] = test system: rat-organ homogenates; settings: cited from earlier work
# [2] = test system: ovarian cancer; test: Ovarian cancer patients (Example VIII D); format: in vivo, human; settings: daily gelatin capsule 200 mg
# Method: A study is carried out in a group of 40 women with ovarian cancer of various grades to determine the effect of treatment with compounds of KST-201, KST-213, KST-301 and KST-401. The administration protocol involves daily administration of a gelatin capsule containing 200 mg of active compound.
compound,measurement,setting,value
"Oc1ccc(/C=C/c2cc(O)cc(O)c2)cc1 [Resveratrol, 3,5,4′-trihydroxy-trans-stilbene, reference compound]","Inhibition (%) of Fe2+ − VitC induced level of MDA at 15 μM, In rat brain",[1]; rat brain,83.20%
same,"Inhibition (%) of Fe2+ − VitC induced level of MDA at 15 μM, In rat kidney",[1]; rat kidney,62.15%
same,"Inhibition (%) of Fe2+ − VitC induced level of MDA at 15 μM, In rat liver",[1]; rat liver,50.36%
"Oc1ccc(C#Cc2ccc(O)cc2)cc1 [KST-201, 4,4′-dihydroxytolan]","Rate of production of ovarian cancer markers (Muc-1, Sp17)",[2],significant decrease
same,Tumor growth during study period,[2],Tumors regress or show no further growth
